{"source": "patent US20100144865A1", "about": "“COMPOUND FEED FOR AQUACULTURE” (priority 2007, published 2010)", "tested_on": "Atlantic salmon (Salmo salar L.) hepatocytes", "format": "in vitro ADME", "description": "The isolated hepatocytes were incubated with 35 nmol, 2.5 μCi of [1-^14C] 18:3 (n-3) as well as non radiolabeled 18:3 (n-3), final concentration 7 μM, in 5 ml of L 15 culture medium without FBS. The radio labeled FA was added to the medium as potassium salt bound to BSA. To each experimental flask (4 radiolabeled and 7 with non-radiolabeled 18:3 (n-3)), DMSO (7.4 μl/5 ml) with sesamin (final concentration 0.05 mM) was added and to each control flasks (4 radiolabeled and 7 with non-radiolabeled 18:3 (n-3)), only DMSO (7.4 μl/5 ml) was added, in another two flasks sesamin but no FA was added. The cells were incubated at 12° C. for 48 h. The radiolabeled experiment flasks with and without sesamin (4 each) were washed and harvested in PBS for further analysis of β-oxidation and radiolabeled lipid classes and radiolabeled cellular fatty acids. The cells in the two flasks with no FA substrate added were denaturated after the incubation and thereafter added radiolabeled substrate in order to be used as a negative control for the ASP measurements and HPLC analyses. In the non-labeled study, control and sesamin flask (4 each) were washed in PBS prior to isolation of mRNA according to the protocol RNeasy® Mini Kit for gene expression analysis and 3 flasks of each control and sesamin were washed and harvested in PSB for fatty acid and sesamin analysis.", "data": [{"smiles": "c1cc2c(cc1C1OCC3C(c4ccc5c(c4)OCO5)OCC13)OCO2", "note": "(stereo not drawn) [episesamin, 2,6-bis-(3,4-methylenedioxyphenyl)-trans-3,7-dioxabicyclo[3.3.0]octane]", "values": [{"measurement": "bioavailability in hepatocytes compared with sesamin", "result": "higher"}]}]}
